Experimental findings from BindingDB's records for patent US12415816 (Dana-Farber Cancer Institute, 2025) are described below.

This assay addresses Tyrosine-protein kinase JAK2 (Homo sapiens, UniProt O60674). Kind of assay: Biochemical Assay. The protocol: The JAK2 Z-Lyte biochemical assay was performed according to manufacturer's instructions (Life Technologies).

Chain of Tyrosine-protein kinase JAK2 (O60674 whole entry): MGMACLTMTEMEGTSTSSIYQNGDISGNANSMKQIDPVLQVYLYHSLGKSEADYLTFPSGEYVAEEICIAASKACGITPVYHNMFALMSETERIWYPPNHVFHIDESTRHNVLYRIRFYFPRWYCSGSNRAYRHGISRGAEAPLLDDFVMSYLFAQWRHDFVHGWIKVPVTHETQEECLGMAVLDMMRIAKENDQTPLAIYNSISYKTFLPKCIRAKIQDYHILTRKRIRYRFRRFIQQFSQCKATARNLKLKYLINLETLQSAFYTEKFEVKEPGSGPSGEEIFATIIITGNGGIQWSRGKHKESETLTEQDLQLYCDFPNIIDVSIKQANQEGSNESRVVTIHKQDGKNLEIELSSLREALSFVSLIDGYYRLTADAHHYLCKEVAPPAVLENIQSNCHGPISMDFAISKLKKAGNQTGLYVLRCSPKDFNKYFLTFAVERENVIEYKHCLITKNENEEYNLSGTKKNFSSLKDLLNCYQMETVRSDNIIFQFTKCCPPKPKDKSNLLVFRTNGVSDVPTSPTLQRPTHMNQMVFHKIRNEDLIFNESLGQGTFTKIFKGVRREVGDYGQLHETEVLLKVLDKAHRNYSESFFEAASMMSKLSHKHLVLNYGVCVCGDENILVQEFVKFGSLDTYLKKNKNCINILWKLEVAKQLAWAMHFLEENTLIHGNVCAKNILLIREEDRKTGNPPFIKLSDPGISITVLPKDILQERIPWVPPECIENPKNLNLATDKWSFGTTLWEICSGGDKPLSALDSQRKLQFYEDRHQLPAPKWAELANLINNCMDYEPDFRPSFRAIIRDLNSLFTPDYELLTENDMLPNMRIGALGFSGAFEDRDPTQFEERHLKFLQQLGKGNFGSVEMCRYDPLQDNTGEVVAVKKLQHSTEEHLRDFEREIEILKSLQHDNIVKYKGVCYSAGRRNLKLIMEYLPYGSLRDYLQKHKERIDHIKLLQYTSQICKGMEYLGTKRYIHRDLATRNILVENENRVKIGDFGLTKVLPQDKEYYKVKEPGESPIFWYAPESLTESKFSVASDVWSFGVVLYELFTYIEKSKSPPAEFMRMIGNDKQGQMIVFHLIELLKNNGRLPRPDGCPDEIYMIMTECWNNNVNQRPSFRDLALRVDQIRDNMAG

For the compound `CCN1CCN(Cc2cc(NC(=O)Nc3ccc(C)c(Oc4ccc5nc(NC(=O)C6CC6)sc5n4)c3)cc(C(F)(F)F)c2)CC1` [US12415816, Compound I-18], the IC50 came out at 1450 nM.
